Patent US9781928B2, “Microbicidal composition” (Dow Global Technologies LLC, priority 2016, dated 2017)

System: Desulfovibrio longus ATCC 51456
Experiment: Biocidal efficacy (bacterial kill) and synergy of glutaraldehyde and surfactants against anaerobic sulfate-reducing bacteria
Format: cell-based
Conditions: 35° C., 10^6 to 10^7 CFU/mL, salt solution
Method: Surfactants and biocides were evaluated for synergy by determining the synergy index (S.I.) of the combination. Synergy index was calculated based on the concentration required to achieve a certain level of bacterial kill when the two antimicrobial compounds (A and B) alone and in combinations. The test organism was anaerobic sulfate-reducing bacteria Desulfovibrio longus ATCC #51456. Surf. A R^1O(CH2CH(CH3)O)5(CH2CH2O)6H Surf. B R^1O(CH2CH(CH3)O)5(CH2CH2O)9H where R^1 is 2-ethylhexyl.
Inside an anaerobic chamber (Bactron anaerobic chamber), a deoxygenated sterile salt solution (3.1183 g of NaCl, 1.3082 mg of NaHCO3, 47.70 mg of KCl, 72.00 mg of CaCl2, 54.49 mg of MgSO4, 172.28 mg of Na2SO4, 43.92 mg of Na2CO3 in 1 L water) was inoculated with Desulfovibrio longus ATCC 51456 to a final bacterial concentration of 10^6 to 10^7 CFU/mL. Aliquots of this cell suspension were then treated with glutaraldehyde, and each of Surf A and B at selected active concentrations. After incubation at 35° C. for 2 hours, viable bacteria in the aliquots were enumerated using serial dilution method.
SI is calculated as follows: Ca/CA+Cb/CB=Synergy Index (“SI”)
Wherein: • Ca=Concentration of biocide A required to achieve a certain level of bacterial kill when used in combination with B • CA=Concentration of biocide A required to achieve a certain level of bacterial kill when used alone • Cb=Concentration of biocide B required to achieve a certain level of bacterial kill when used in combination with A • CB=Concentration of biocide B required to achieve a certain level of bacterial kill when used alone When the sum of Ca/CA and Cb/CB is greater than one, antagonism is indicated.

## O=CCCCC=O [Glut, glutaraldehyde, (1,5-pentanedial) CAS No. 111-30-8]
Glut concentration alone (1:0) or in combination with Surf. A
  Concentration (active ppm) for complete bacterial kill in 2 hours, Glut: 13.2 ppm
Glut concentration alone (1:0) or in combination with Surf. B
  Concentration (active ppm) for 99.99% bacterial kill in 2 hours, Glut: 5.9 ppm

## R^1O(CH2CH(CH3)O)5(CH2CH2O)6H where R^1 is 2-ethylhexyl [Surf. A]
Surf. A concentration alone (0:1) or in combination with Glut
  Concentration (active ppm) for complete bacterial kill in 2 hours, Surf. A: >100 ppm

## R^1O(CH2CH(CH3)O)5(CH2CH2O)9H where R^1 is 2-ethylhexyl [Surf. B]
Surf. B concentration alone (0:1) or in combination with Glut
  Concentration (active ppm) for 99.99% bacterial kill in 2 hours, Surf B: >100 ppm
